Results as given in the CheMixHub viscosity set.
± gives the uncertainty stated by the source.

Assay: xn = mol fraction of the nth substance listed

O=C1CCCO1 + COC(=O)OC
viscosity [mPa·s]
Conditions	293.15 K	298.15 K	303.15 K	308.15 K	313.15 K	318.15 K	323.15 K
101 kPa, x2 = 0.1013	1.635 ± 0.027	1.52 ± 0.025	1.413 ± 0.023	1.316 ± 0.022	1.231 ± 0.021	1.154 ± 0.02	1.083 ± 0.019
101 kPa, x2 = 0.2013	1.437 ± 0.024	1.331 ± 0.022	1.237 ± 0.021	1.154 ± 0.02	1.08 ± 0.019	1.013 ± 0.018	0.953 ± 0.017
101 kPa, x2 = 0.3001	1.277 ± 0.021	1.186 ± 0.02	1.104 ± 0.019	1.033 ± 0.018	0.968 ± 0.018	0.91 ± 0.017	0.857 ± 0.016
101 kPa, x2 = 0.4006	1.138 ± 0.02	1.058 ± 0.019	0.987 ± 0.018	0.923 ± 0.017	0.867 ± 0.016	0.816 ± 0.016	0.77 ± 0.015
101 kPa, x2 = 0.5	1.018 ± 0.018	0.95 ± 0.017	0.889 ± 0.017	0.836 ± 0.016	0.786 ± 0.015	0.742 ± 0.015	0.701 ± 0.014
101 kPa, x2 = 0.5986	0.918 ± 0.017	0.856 ± 0.016	0.802 ± 0.015	0.753 ± 0.015	0.709 ± 0.014	0.669 ± 0.014	0.634 ± 0.014
101 kPa, x2 = 0.6999	0.83 ± 0.016	0.776 ± 0.015	0.728 ± 0.015	0.685 ± 0.014	0.647 ± 0.014	0.612 ± 0.013	0.58 ± 0.013
101 kPa, x2 = 0.7989	0.75 ± 0.015	0.702 ± 0.014	0.659 ± 0.014	0.62 ± 0.014	0.585 ± 0.013	0.553 ± 0.013	0.524 ± 0.013
101 kPa, x2 = 0.8995	0.685 ± 0.014	0.644 ± 0.014	0.605 ± 0.013	0.57 ± 0.013	0.538 ± 0.013	0.51 ± 0.013	0.483 ± 0.012
101.3 kPa, x2 = 0.1282	–	1.22 ± 0.24	–	–	–	–	–
101.3 kPa, x2 = 0.1724	–	1.14 ± 0.22	–	–	–	–	–
101.3 kPa, x2 = 0.2631	–	0.99 ± 0.2	–	–	–	–	–
101.3 kPa, x2 = 0.4545	–	0.85 ± 0.17	–	–	–	–	–
101.3 kPa, x2 = 0.5555	–	0.83 ± 0.17	–	–	–	–	–
101.3 kPa, x2 = 0.6603	–	0.76 ± 0.16	–	–	–	–	–
101.3 kPa, x2 = 0.7792	–	0.78 ± 0.16	–	–	–	–	–
101.3 kPa, x2 = 0.8823	–	0.67 ± 0.14	–	–	–	–	–
